Assay results: patent publication US20240010981A1, “COMPOSITIONS AND METHODS FOR INCREASING STEM CELL FUNCTION” (SOCIETE DES PRODUITS NESTLE S.A., priority 2020, published 2024)
Entries after “also recorded” stand apart in the source; their conditions may differ.

Key:
[1] = test system: murine HSCs (LKS CD150+CD48−); assay: Mitochondrial membrane potential (TMRM staining, flow cytometry) of cultured murine HSCs; type: cell-based, mouse; details: compared to the Basal condition; day 3 of culture; NR 500 uM, Vit B12 (MC) 100 uM
Description: Flow cytometry analysis was performed on freshly isolated bone marrow (BM) from C57BI6 mice. BM was extracted from crushed femora and tibia. Cell suspension was filtered through a 70 μm cell strainer and erythroid cells were eliminated by incubation with red blood cell lysis buffer (eBioscences). Isolation and stains were performed in ice-cold PBS 1 mM EDTA. Lineage positive cells were then removed with a magnetic lineage depletion kit (BD biosciences). Cell suspensions were then stained with specific antibodies for the stem cell compartment and sorted by FACS (BD FACS Aria III) into 1.5 ml Eppendorf tubes.
The following antibodies were used in this study: rat mAbs against cKit (2B8), Sca1 (D7), CD150 (TC-15-12F12.2), CD48 (HM48-1). The antibodies were purchased from Biolegend, eBiosciences and BD. A mixture of biotinylated mAbs against CD3, CD11b, CD45R/B220, Ly-6G, Ly-6C and TER-119 was used as lineage marker (“lineage cocktail”) and was purchased from BD. DAPI or propidium iodine (PI) staining was used for live/dead cell discrimination.
Murine HSCs were sorted into 1.5 ml Eppendorf tubes and were cultured in Stemline II (SIGMA) supplemented with 100 ng/ml SCF (R&D) and 2 ng/ml Flt3 (R&D). This was defined as the basal condition. Different concentrations as indicated of UroA, NR and Vit B12 (MC) were added in specific wells. NR was supplemented every 24 hours.
Mouse HSCs already in culture were incubated at 37° C. for 1 hour with 200 nM tetramethylrhodamine methyl ester (TMRM; Invitrogen) and 100 nM Mitotracker green. Cells were then washed with FACS buffer and analysed by flow cytometry on a BD LSR II.
Freshly FACS sorted mHSCs (LKS CD150+CD48−) were cultured in basal media (Stemline+SCF+FLT3L) supplemented with UroA, NR and MC in specific wells (as indicated). Cells were harvested at day 3 and stained with tetramethylrhodamine methyl ester (TMRM; to measure mitochondria membrane potential) and Mitotracker (to measure mitochondrial mass) and analysed by flow cytometry.

human HSCs = details: culture media supplemented with nicotinamide riboside, primary and secondary recipient humanised mice; cited from earlier work

**Q.** Which results are given for `C/C1=C2/[N-][C@H]([C@H](CC(N)=O)[C@@]2(C)CCC(=O)NC[C@@H](C)OP(=O)([O-])O[C@H]2[C@@H](O)[C@@H](n3cnc4cc(C)c(C)cc43)O[C@@H]2CO)[C@]2(C)N=C(/C(C)=C3N=C(/C=C4N=C1[C@@H](CCC(N)=O)C\4(C)C)[C@@H](CCC(N)=O)[C@]\3(C)CC(N)=O)[C@@H](CCC(N)=O)[C@]2(C)CC(N)=O.[CH3-].[Co]` [MC, methylcobalamine]?
**A.** MFI TMRM (Mean Fluorescence Intensity) [1]: significantly decreased; also recorded: decreases; proportion of cells in the TMRM low gate [1]: significantly increased; also recorded: increases

**Q.** With `NC(=O)c1ccc[n+]([C@@H]2O[C@H](CO)[C@@H](O)[C@H]2O)c1` [NR, Nicotinamide riboside] as the compound, how does the “MFI TMRM (Mean Fluorescence Intensity)” value [1] read?
**A.** Its value is “significantly decreased; also recorded: decreases”.

**Q.** What about the “proportion of cells in the TMRM low gate” value [1] of the same compound?
**A.** Its value is “significantly increased; also recorded: increases”.

**Q.** What about the levels of engraftment (human HSCs) of the same compound?
**A.** The levels of engraftment was “significantly higher”.
